# ± gives the expanded uncertainty stated by the source.
# Details: for molar entropy: 101.33 kPa, Crystal 1, Vacuum adiabatic calorimetry
compound,measurement,setting,value
[Al+3].[Al+3].[Co+2].[O-2].[O-2].[O-2].[O-2] [aluminium cobalt oxide],molar entropy,15 K,2.91 ± 0.04 J/K/mol
same,molar entropy,20 K,4.1 ± 0.05 J/K/mol
same,molar entropy,25 K,5.02 ± 0.05 J/K/mol
same,molar entropy,30 K,5.79 ± 0.08 J/K/mol
same,molar entropy,35 K,6.5 ± 0.08 J/K/mol
same,molar entropy,40 K,7.21 ± 0.08 J/K/mol
same,molar entropy,45 K,7.95 ± 0.08 J/K/mol
same,molar entropy,50 K,8.75 ± 0.09 J/K/mol
same,molar entropy,55 K,9.61 ± 0.09 J/K/mol
same,molar entropy,60 K,10.56 ± 0.09 J/K/mol
same,molar entropy,65 K,11.58 ± 0.09 J/K/mol
same,molar entropy,70 K,12.68 ± 0.1 J/K/mol
same,molar entropy,75 K,13.85 ± 0.1 J/K/mol
same,molar entropy,80 K,15.1 ± 0.11 J/K/mol
same,molar entropy,85 K,16.42 ± 0.11 J/K/mol
same,molar entropy,90 K,17.81 ± 0.33 J/K/mol
same,molar entropy,95 K,19.26 ± 0.33 J/K/mol
same,molar entropy,100 K,20.77 ± 0.33 J/K/mol
same,molar entropy,105 K,22.33 ± 0.33 J/K/mol
same,molar entropy,110 K,23.96 ± 0.34 J/K/mol
same,molar entropy,120 K,27.36 ± 0.34 J/K/mol
same,molar entropy,130 K,30.94 ± 0.35 J/K/mol
same,molar entropy,140 K,34.68 ± 0.35 J/K/mol
same,molar entropy,150 K,38.55 ± 0.36 J/K/mol
same,molar entropy,160 K,42.52 ± 0.36 J/K/mol
same,molar entropy,170 K,46.6 ± 0.37 J/K/mol
same,molar entropy,180 K,50.73 ± 0.38 J/K/mol
same,molar entropy,190 K,54.92 ± 0.38 J/K/mol
same,molar entropy,200 K,59.14 ± 0.39 J/K/mol
same,molar entropy,210 K,63.39 ± 0.4 J/K/mol
same,molar entropy,220 K,67.65 ± 0.4 J/K/mol
same,molar entropy,230 K,71.9 ± 0.41 J/K/mol
same,molar entropy,240 K,76.15 ± 0.41 J/K/mol
same,molar entropy,250 K,80.37 ± 0.42 J/K/mol
same,molar entropy,260 K,84.57 ± 0.43 J/K/mol
same,molar entropy,270 K,88.74 ± 0.43 J/K/mol
same,molar entropy,280 K,92.88 ± 0.44 J/K/mol
same,molar entropy,290 K,97 ± 0.45 J/K/mol
same,molar entropy,298.15 K,100.31 ± 0.45 J/K/mol
same,molar entropy,300 K,101.06 ± 0.45 J/K/mol
same,molar entropy,310 K,105.07 ± 0.46 J/K/mol
same,molar entropy,320 K,109.05 ± 0.46 J/K/mol
same,molar entropy,330 K,112.99 ± 0.47 J/K/mol
same,molar entropy,340 K,116.88 ± 0.48 J/K/mol
same,molar entropy,350 K,120.72 ± 0.48 J/K/mol
same,molar entropy,360 K,124.52 ± 0.49 J/K/mol
same,molar entropy,370 K,128.28 ± 0.49 J/K/mol
same,molar entropy,380 K,131.99 ± 0.5 J/K/mol
same,molar entropy,390 K,135.65 ± 0.5 J/K/mol
same,Triple point temperature,"Crystal 2, Adiabatic calorimetry",9 ± 0.2 K

# — the NIST ThermoML archive (doi:10.1016/j.jct.2009.01.014)
